Values joined by “and” are separate entries in the source; they are usually repeats but may differ in a detail not shown here. Identical values can stand only once.

In assay [1] the target is Glycogen synthase kinase-3 alpha (Homo sapiens, UniProt P49840). Description: TR-FRET Assay. In short, it runs like this: (§1)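 Kinase activity, measured after a 30-minute compound preincubation, was stopped with EDTA and quantified by TR-FRET using a Tb-labelled pSer641 antibody paired with streptavidin-d2.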
Assay [2] concerns the target Glycogen synthase kinase-3 beta (Homo sapiens, UniProt P49841). Description: TR-FRET Assay. In short, it runs like this: as §1
A general note: Time-resolved FRET reads energy transfer from a long-lived donor to a nearby acceptor.

Sequence of Glycogen synthase kinase-3 alpha (P49840 whole entry): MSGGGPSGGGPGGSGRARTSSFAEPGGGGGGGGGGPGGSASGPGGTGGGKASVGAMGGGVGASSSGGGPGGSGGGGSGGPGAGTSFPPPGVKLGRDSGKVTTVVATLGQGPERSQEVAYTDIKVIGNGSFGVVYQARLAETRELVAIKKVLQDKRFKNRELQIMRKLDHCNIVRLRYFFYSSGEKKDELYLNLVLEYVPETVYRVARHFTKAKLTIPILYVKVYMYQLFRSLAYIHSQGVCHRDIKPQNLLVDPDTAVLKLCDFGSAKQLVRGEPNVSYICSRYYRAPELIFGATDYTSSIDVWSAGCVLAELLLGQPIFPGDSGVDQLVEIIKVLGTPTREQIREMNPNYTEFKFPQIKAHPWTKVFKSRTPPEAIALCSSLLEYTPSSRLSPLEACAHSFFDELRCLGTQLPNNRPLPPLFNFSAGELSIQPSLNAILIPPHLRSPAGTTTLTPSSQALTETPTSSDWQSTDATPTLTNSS
Sequence of Glycogen synthase kinase-3 beta (P49841 whole entry): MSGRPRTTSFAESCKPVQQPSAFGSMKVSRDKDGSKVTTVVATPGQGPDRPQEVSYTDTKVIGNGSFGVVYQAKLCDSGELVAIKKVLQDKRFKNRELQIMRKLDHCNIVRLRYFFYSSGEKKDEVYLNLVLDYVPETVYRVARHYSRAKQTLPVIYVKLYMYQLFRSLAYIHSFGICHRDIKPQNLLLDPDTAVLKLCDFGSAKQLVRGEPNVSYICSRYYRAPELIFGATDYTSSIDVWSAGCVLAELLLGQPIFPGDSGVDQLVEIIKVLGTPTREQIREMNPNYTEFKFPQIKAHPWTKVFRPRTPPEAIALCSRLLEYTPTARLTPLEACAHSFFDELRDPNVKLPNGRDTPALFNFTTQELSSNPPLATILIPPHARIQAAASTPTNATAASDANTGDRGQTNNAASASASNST

As a reminder, the IC50 is the point on the concentration scale where inhibition reaches its midpoint. Low values mean greater potency in that assay, high ones weaker potency in that assay. For the compound `CC(=O)N1CCC2(C1)C1=CN=NC1NC1=C2C(=O)CC(C)(C)C1` (configuration not stated) [US20250313563, Compound 826763], the IC50 in assay [1] fell in the range of 100 to 1000 nM; in assay [2], 1000 to 5000 nM.
As to `CC[C@]1(c2cccc(-c3ccnc(OC)c3)c2)C2=CN=NC2NC2=C1C(=O)CC(C)(C)C2` (some centres not stated) [US20250313563, Compound 911988], the IC50 is < 100 nM and 100 to 1000 nM in assay [1]; 100 to 1000 nM and > 5000 nM in assay [2].
Turning to `CCC1(c2cccc(N3CC4CCC3CC4)c2)C2=CN=NC2NC2=C1C(=O)CC(C)(C)C2` (configuration not stated) [US20250313563, Compound 885120], the IC50 in assay [1] was under 100 nM; in assay [2], 100 to 1000 nM.
Turning to `CC[C@@]1(c2cccc(-c3cnn4c3CCCC4)c2)C2=C(CC(C)(C)NC2=O)NC2N=NC(C(F)(F)F)=C21` (some centres not stated) [US20250313563, Compound 948775], the IC50 in assay [1] is under 100 nM; in assay [2], < 100 nM and 100 to 1000 nM.
In the case of `CC[C@]1(c2cccc(-c3ccnn3C)c2)C2=CN=NC2NC2=C1C(=O)CC(C)(C)[C@H]2F` (some centres not stated) [US20250313563, Compound 957507], the IC50 in assay [1] is under 100 nM; in assay [2], < 100 nM and 1000 to 5000 nM.
Consider `COCc1cccc(S(=O)(=O)N2CCC3(CC2)C2=C(N=NC2)NC2=C3C(=O)CC(C)(C)C2)c1` [US20250313563, Compound 947605], for which the IC50 in assay [1] and in assay [2] was under 100 nM throughout.
Take `C[C@H]1CCC[C@]12C1=CN=NC1NC1=C2C(=O)CC(C)(C)C1` (some centres not stated) [US20250313563, Compound 874320]: the IC50 in assay [1] and in assay [2] was 1000 to 5000 nM throughout.
In the case of `CC1(C)CC(=O)C2=C(C1)NC1=C(CN=N1)[C@]21CCC[C@@H](C#N)C1` [US20250313563, Compound 946080], the IC50 in assay [1] and in assay [2] was 1000 to 5000 nM in each case.
Take `CC[C@@]1(c2cccc(-c3ccncc3F)c2)C2=C(CC(C)(C)NC2=O)NC2N=NC(C(F)F)=C21` (some centres not stated) [US20250313563, Compound 951599]: the IC50 in assay [1] and in assay [2] was 100 to 1000 nM each time.
Regarding `C[C@]1(c2ccccc2)C2=C(N=NC2)NC2=C1C(=O)CC1(CCCC1)C2` [US20250313563, Compound 792338], the values for the IC50 in assay [1] and in assay [2] were under 100 nM and 100 to 1000 nM, respectively.
The like results for `CCC1(c2cccc(-c3ccccc3)c2)C2=CN=NC2NC2=C1C(=O)CC(C)(C)C2` (configuration not stated) [US20250313563, Compound 789514] were, in that order, 100 to 1000 nM and 100 to 1000 nM.
The like results for `CC[C@@]1(c2cccc(-c3ccncn3)c2)C2=CN=NC2NC2=C1C(=O)CC(C)(C)C2` (some centres not stated) [US20250313563, Compound 810489] were, in that order, 1000 to 5000 nM and over 5000 nM.
The like results for `CC[C@]1(c2cccc(N3CCOCC3)c2)C2=CN=NC2NC2=C1C(=O)CC(C)(C)C2` (some centres not stated) [US20250313563, Compound 810364] were, in that order, over 5000 nM and over 5000 nM.
For `CC1(C)CC(=O)C2=C(C1)NC1=C(CN=N1)C2(C)c1cc(Cl)cc(Cl)c1` (configuration not stated) [US20250313563, Compound 789337], the IC50 fell in the range of 100 to 1000 nM in assay [1] and 1000 to 5000 nM in assay [2].
For `CC[C@]1(c2cccc(-c3cncn3C)c2)C2=C(CC(C)(C)CC2=O)NC2N=NC(C)=C21` (some centres not stated) [US20250313563, Compound 913037], in that order: under 100 nM and 100 to 1000 nM.
The like results for `CCC1(c2cccc(-c3c(C)nn(C)c3C)c2)C2=CN=NC2NC2=C1C(=O)CC(C)(C)C2` (configuration not stated) [US20250313563, Compound 883851] were, in that order, under 100 nM and under 100 nM.
The like results for `CC[C@]1(c2cccc(Br)c2)C2=CN=NC2NC2=C1C(=O)C[C@H](C(F)(F)F)C2` (some centres not stated) [US20250313563, Compound 826655] were, in that order, over 5000 nM and over 5000 nM.
For the compound `CC[C@]1(c2cccc(C(F)(F)C(F)(F)F)c2)C2=CN=NC2NC2=C1C(=O)CC(C)(C)C2` (some centres not stated) [US20250313563, Compound 949103], the IC50 in assay [1] was < 100 nM and 100 to 1000 nM; in assay [2], < 100 nM and 100 to 1000 nM.
In the case of `CC[C@@H]1CCN1c1cccc([C@@]2(CC)C3=CN=NC3NC3=C2C(=O)CC(C)(C)C3)c1` (some centres not stated) [US20250313563, Compound 911970], the IC50 was under 100 nM in assay [1] and 100 to 1000 nM in assay [2].
The like results for `CC1(C)CC2=C(C(=O)[C@@H]1F)C1(CCOCC1)C1=C(N=NC1)N2` [US20250313563, Compound 883835] were, in that order, 100 to 1000 nM and 100 to 1000 nM.
Regarding `CC[C@@]1(c2cccc(-c3cnnc(C)c3)c2)C2=CN=NC2NC2=C1C(=O)NC(C)(C)C2` (some centres not stated) [US20250313563, Compound 944074], the IC50 in assay [1] is < 100 nM and 100 to 1000 nM; in assay [2], 100 to 1000 nM and > 5000 nM.
On to `CCC1(c2cccc(Br)c2)C2=C(CC(C)(C)CC2=O)NC2N=NC(C(F)(F)F)=C21` (configuration not stated) [US20250313563, Compound 801324], for which the IC50 in assay [1] and in assay [2] was under 100 nM each time.
On to `CC[C@]1(c2cccc(-c3ccnc(CCO)c3)c2)C2=CN=NC2NC2=C1C(=O)CC(C)(C)C2` (some centres not stated) [US20250313563, Compound 947816], for which the figures for the IC50 in assay [1] and in assay [2] were 1000 to 5000 nM and over 5000 nM, respectively.
The like results for `CC[C@@]1(c2cccc(C(F)(F)F)c2)C2=C(N=NC2)NC2=C1C(=O)CC2` [US20250313563, Compound 951566] were, in that order, 1000 to 5000 nM and over 5000 nM.
For `CCC1(c2cccc(-c3ccncc3)c2)C2=CN=NC2NC2=C1C(=O)CC(C)(C)C2` (configuration not stated) [US20250313563, Compound 791271], in that order: under 100 nM and 100 to 1000 nM.
For the compound `CC(=O)N1C[C@]2(C[C@@]3(CO2)C2=C(N=NC2)NC2=C3C(=O)CC(C)(C)C2)[C@H]1C` [US20250313563, Compound 948437], the IC50 in assay [1] and in assay [2] was under 100 nM each time.
In the case of `CCC1(c2cccc(-c3cc(C)nnc3C)c2)C2=C(CC(C)(C)NC2=O)NC2N=NC(C)=C21` (configuration not stated) [US20250313563, Compound 948765], the IC50 in assay [1] and in assay [2] was under 100 nM throughout.
Turning to `CC[C@@]1(c2cccc(N3CCCC[C@H]3C)c2)C2=CN=NC2NC2=C1C(=O)CC(C)(C)C2` (some centres not stated) [US20250313563, Compound 917210], the IC50 in assay [1] and in assay [2] was over 5000 nM throughout.
In the case of `CC1(C)CC(=O)C2=C(C1)NC1=C(CN=N1)C21CCC(C(=O)N2CCCC2)CC1` (configuration not stated) [US20250313563, Compound 945396], the IC50 in assay [1] and in assay [2] was 100 to 1000 nM in each case.
As to `CC[C@@]1(c2cccc(C)c2)C2=CN=NC2NC2=C1C(=O)CC(C)(C)C2` (some centres not stated) [US20250313563, Compound 789561], the IC50 in assay [1] is 1000 to 5000 nM; in assay [2] it was over 5000 nM.
For `CC1(C)CC(=O)C2=C(C1)NC1N=NC(CCC(F)(F)F)=C1[C@@]21CCc2c(F)cccc21` (some centres not stated) [US20250313563, Compound 874323], in that order: 1000 to 5000 nM and 1000 to 5000 nM.
The like results for `CC[C@@]1(c2cccc(-c3c4c(nn3C)CCCC4)c2)C2=CN=NC2NC2=C1C(=O)NC(C)(C)C2` (some centres not stated) [US20250313563, Compound 948652] were, in that order, 100 to 1000 nM and over 5000 nM.
For `CC[C@@]1(c2cccc(N(C)c3cncnc3)c2)C2=CN=NC2NC2=C1C(=O)NC(C)(C)C2` (some centres not stated) [US20250313563, Compound 915401], in that order: 100 to 1000 nM and 1000 to 5000 nM.
Regarding `CCC1(c2cccc(N(C(C)=O)C(C)C)c2)C2=CN=NC2NC2=C1C(=O)CC(C)(C)C2` (configuration not stated) [US20250313563, Compound 893305], the IC50 in assay [1] and in assay [2] was under 100 nM each time.
With `CC1(C)CC(=O)C2=C(C1)NC1=C(CN=N1)[C@]21C[C@@]2(CCN(CC(F)F)C2)C1` [US20250313563, Compound 913139], the IC50 in assay [1] and in assay [2] was 100 to 1000 nM in each case.
With `CC1(C)CC(=O)C2=C(C1)NC1N=NC(CC(F)(F)F)=C1C21CCc2c(F)cccc21` (configuration not stated) [US20250313563, Compound 810590], the IC50 in assay [1] and in assay [2] was 100 to 1000 nM throughout.
Take `CC[C@]1(c2cccc(N(C)C(=O)c3ccn(C)n3)c2)C2=CN=NC2NC2=C1C(=O)CC(C)(C)C2` (some centres not stated) [US20250313563, Compound 929455]: the IC50 in assay [1] and in assay [2] was over 5000 nM in each case.
`CC[C@]1(c2cccc(-c3cnn4c3CCCC4)c2)C2=C(CC(C)(C)NC2=O)NC2N=NC(C(F)(F)F)=C21` (some centres not stated) [US20250313563, Compound 948772]: the IC50 in assay [1] and in assay [2] was 100 to 1000 nM throughout.
`CC1(C)CC(=O)C2=C(C1)NC1=C(CN=N1)C21CCN(S(=O)(=O)C2CCOCC2)CC1` [US20250313563, Compound 913127]: the IC50 in assay [1] is under 100 nM; in assay [2], < 100 nM and 100 to 1000 nM.
Regarding `CC[C@@]1(c2cccc(C3=C4CC=C(F)C=C4N=CC3)c2)C2=CN=NC2NC2=C1C(=O)NC(C)(C)C2` (some centres not stated) [US20250313563, Compound 948528], the figures for the IC50 in assay [1] and in assay [2] were under 100 nM and 100 to 1000 nM, respectively.
The like results for `CC[C@]1(c2cccc(C(F)F)c2)C2=C(CC(C)(C)NC2=O)NC2N=NC(C(F)(F)F)=C21` (some centres not stated) [US20250313563, Compound 951946] were, in that order, 100 to 1000 nM and 1000 to 5000 nM.
For `CC[C@]1(c2cccc(N(C)c3cc(C)ccn3)c2)C2=CN=NC2NC2=C1C(=O)CC(C)(C)C2` (some centres not stated) [US20250313563, Compound 945616], the IC50 in assay [1] and in assay [2] was over 5000 nM in each case.
For the compound `CC[C@@]1(c2cccc(S(=O)(=O)C(C)C)c2)C2=C(CC(C)(C)NC2=O)NC2N=NC(C(F)(F)F)=C21` (some centres not stated) [US20250313563, Compound 948423], the IC50 in assay [1] was under 100 nM; in assay [2] it was 100 to 1000 nM.
The like results for `CCC1(c2cccc(S(=O)(=O)CC3CC3)c2)C2=C(CC(C)(C)NC2=O)NC2=C1C(C(F)(F)F)N=N2` (configuration not stated) [US20250313563, Compound 948179] were, in that order, under 100 nM and under 100 nM.
The like results for `CC1(C)CC(=O)C2=C(C1)NC1N=NC(CC(F)(F)F)=C1[C@@]21CCc2c(F)cccc21` (some centres not stated) [US20250313563, Compound 816837] were, in that order, 1000 to 5000 nM and 100 to 1000 nM.
For `C[C@H]1CC[C@]2(C1)C1=C(N=NC1)NC1=C2C(=O)CC(C)(C)C1` [US20250313563, Compound 897751], in that order: under 100 nM and 100 to 1000 nM.
